{"source": "ChEMBL document CHEMBL1201862", "about": "“PubChem BioAssay data set” (2004)", "assay_in_all_cases": "inhibition of tumour cell growth, NCI panel, 48 h", "key": {"[1]": {"tested_on": "MCF7"}, "[2]": {"tested_on": "A498"}, "[3]": {"tested_on": "SNB-75"}, "[4]": {"tested_on": "SK-MEL-2"}, "[5]": {"tested_on": "HOP-92"}, "[6]": {"tested_on": "RPMI-8226"}, "[7]": {"tested_on": "NCI-H460"}, "[8]": {"tested_on": "K562"}, "[9]": {"tested_on": "UACC-257"}, "[10]": {"tested_on": "SF-268"}, "[11]": {"tested_on": "SK-OV-3"}, "[12]": {"tested_on": "SK-MEL-5"}, "[13]": {"tested_on": "NCI/ADR-RES"}, "[14]": {"tested_on": "OVCAR-4"}, "[15]": {"tested_on": "SF-539"}, "[16]": {"tested_on": "TK-10"}, "[17]": {"tested_on": "SR"}, "[18]": {"tested_on": "A549"}}, "note": "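Assay format: 96-well plates, 48-hour exposure. The concentration for 50% growth inhibition is given as GI50.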 The source made the active and inactive calls. No stated cut-off is given here; in the data, active = GI50 up to about 1.1 µM and inactive = higher."}
{"smiles": "CC(=O)OC1CC2(O)C(CCC3(C)C(c4ccc(=O)oc4)CCC32O)C2(C)CCC(O)C=C12", "note": "(stereo not drawn)", "values": [{"measurement": "GI50", "setting": "[1]", "result": "0.0375 µM (active)"}, {"measurement": "GI50", "setting": "[2]", "result": "0.0428 µM (active)"}, {"measurement": "GI50", "setting": "[3]", "result": "0.0317 µM (active)"}, {"measurement": "GI50", "setting": "[4]", "result": "0.0177 µM (active)"}, {"measurement": "GI50", "setting": "[5]", "result": "0.0604 µM (active)"}, {"measurement": "GI50", "setting": "[6]", "result": "0.00993 µM (active)"}, {"measurement": "GI50", "setting": "[7]", "result": "0.00454 µM (active)"}, {"measurement": "GI50", "setting": "[8]", "result": "0.0375 µM (active)"}, {"measurement": "GI50", "setting": "[9]", "result": "0.0242 µM (active)"}, {"measurement": "GI50", "setting": "[10]", "result": "0.0375 µM (active)"}, {"measurement": "GI50", "setting": "[11]", "result": "0.0336 µM (active)"}, {"measurement": "GI50", "setting": "[12]", "result": "0.00439 µM (active)"}, {"measurement": "GI50", "setting": "[13]", "result": "0.0125 µM (active)"}, {"measurement": "GI50", "setting": "[14]", "result": "0.0206 µM (active)"}, {"measurement": "GI50", "setting": "[15]", "result": "0.00775 µM (active)"}]}
{"smiles": "O=C1CCC2(c3ccc(Cl)cc3)Nc3ccccc3N12", "note": "(stereo not drawn)", "values": [{"measurement": "GI50", "setting": "[2]", "result": "> 100 µM (inactive)"}, {"measurement": "GI50", "setting": "[3]", "result": "19.3 µM (inactive)"}, {"measurement": "GI50", "setting": "[4]", "result": "> 100 µM (inactive)"}, {"measurement": "GI50", "setting": "[5]", "result": "19.9 µM (inactive)"}, {"measurement": "GI50", "setting": "[16]", "result": "> 100 µM (inactive)"}, {"measurement": "GI50", "setting": "[6]", "result": "53.7 µM (inactive)"}, {"measurement": "GI50", "setting": "[7]", "result": "> 100 µM (inactive)"}, {"measurement": "GI50", "setting": "[8]", "result": "54.5 µM (inactive)"}, {"measurement": "GI50", "setting": "[17]", "result": "34.4 µM (inactive)"}, {"measurement": "GI50", "setting": "[9]", "result": "> 100 µM (inactive)"}, {"measurement": "GI50", "setting": "[10]", "result": "83.9 µM (inactive)"}, {"measurement": "GI50", "setting": "[18]", "result": "52.6 µM (inactive)"}, {"measurement": "GI50", "setting": "[14]", "result": "75 µM (inactive)"}, {"measurement": "GI50", "setting": "[15]", "result": "> 100 µM (inactive)"}]}
{"smiles": "CC(=O)NNc1nc(C)c(C(=O)NNC(=O)C(=O)Nc2c(C)cccc2C(C)(C)C)s1", "values": [{"measurement": "GI50", "setting": "[2]", "result": "> 100 µM (inactive)"}, {"measurement": "GI50", "setting": "[3]", "result": "> 100 µM (inactive)"}, {"measurement": "GI50", "setting": "[4]", "result": "> 100 µM (inactive)"}, {"measurement": "GI50", "setting": "[5]", "result": "> 100 µM (inactive)"}, {"measurement": "GI50", "setting": "[16]", "result": "> 100 µM (inactive)"}, {"measurement": "GI50", "setting": "[6]", "result": "45.9 µM (inactive)"}, {"measurement": "GI50", "setting": "[7]", "result": "52.2 µM (inactive)"}, {"measurement": "GI50", "setting": "[8]", "result": "31.3 µM (inactive)"}, {"measurement": "GI50", "setting": "[17]", "result": "48.2 µM (inactive)"}, {"measurement": "GI50", "setting": "[9]", "result": "> 100 µM (inactive)"}, {"measurement": "GI50", "setting": "[10]", "result": "> 100 µM (inactive)"}, {"measurement": "GI50", "setting": "[18]", "result": "46.9 µM (inactive)"}, {"measurement": "GI50", "setting": "[11]", "result": "> 100 µM (inactive)"}, {"measurement": "GI50", "setting": "[12]", "result": "> 100 µM (inactive)"}, {"measurement": "GI50", "setting": "[14]", "result": "40.3 µM (inactive)"}, {"measurement": "GI50", "setting": "[15]", "result": "> 100 µM (inactive)"}]}
{"smiles": "CC(C(=O)OCc1ccccc1)N(Cc1ccccc1)Cc1ccccc1", "note": "(stereo not drawn)", "values": [{"measurement": "GI50", "setting": "[2]", "result": "> 100 µM (inactive)"}, {"measurement": "GI50", "setting": "[3]", "result": "42.7 µM (inactive)"}, {"measurement": "GI50", "setting": "[4]", "result": "29.6 µM (inactive)"}, {"measurement": "GI50", "setting": "[5]", "result": "> 100 µM (inactive)"}, {"measurement": "GI50", "setting": "[16]", "result": "> 100 µM (inactive)"}, {"measurement": "GI50", "setting": "[6]", "result": "35.9 µM (inactive)"}, {"measurement": "GI50", "setting": "[7]", "result": "> 100 µM (inactive)"}, {"measurement": "GI50", "setting": "[8]", "result": "77.8 µM (inactive)"}, {"measurement": "GI50", "setting": "[17]", "result": "31 µM (inactive)"}, {"measurement": "GI50", "setting": "[9]", "result": "33.7 µM (inactive)"}, {"measurement": "GI50", "setting": "[10]", "result": "> 100 µM (inactive)"}, {"measurement": "GI50", "setting": "[18]", "result": "> 100 µM (inactive)"}, {"measurement": "GI50", "setting": "[11]", "result": "> 100 µM (inactive)"}, {"measurement": "GI50", "setting": "[12]", "result": "43.1 µM (inactive)"}, {"measurement": "GI50", "setting": "[14]", "result": "> 100 µM (inactive)"}, {"measurement": "GI50", "setting": "[15]", "result": "> 100 µM (inactive)"}]}
{"smiles": "C/C(CCN(C)C)=N\\OC(=O)c1ccccc1", "values": [{"measurement": "GI50", "setting": "[2]", "result": "> 100 µM (inactive)"}, {"measurement": "GI50", "setting": "[3]", "result": "50.8 µM (inactive)"}, {"measurement": "GI50", "setting": "[4]", "result": "> 100 µM (inactive)"}, {"measurement": "GI50", "setting": "[5]", "result": "> 100 µM (inactive)"}, {"measurement": "GI50", "setting": "[16]", "result": "> 100 µM (inactive)"}, {"measurement": "GI50", "setting": "[6]", "result": "> 100 µM (inactive)"}, {"measurement": "GI50", "setting": "[7]", "result": "> 100 µM (inactive)"}, {"measurement": "GI50", "setting": "[8]", "result": "> 100 µM (inactive)"}, {"measurement": "GI50", "setting": "[17]", "result": "> 100 µM (inactive)"}, {"measurement": "GI50", "setting": "[9]", "result": "> 100 µM (inactive)"}, {"measurement": "GI50", "setting": "[10]", "result": "> 100 µM (inactive)"}, {"measurement": "GI50", "setting": "[18]", "result": "> 100 µM (inactive)"}, {"measurement": "GI50", "setting": "[11]", "result": "> 100 µM (inactive)"}, {"measurement": "GI50", "setting": "[12]", "result": "> 100 µM (inactive)"}, {"measurement": "GI50", "setting": "[14]", "result": "> 100 µM (inactive)"}, {"measurement": "GI50", "setting": "[15]", "result": "> 100 µM (inactive)"}]}
{"smiles": "OC(Cn1cncn1)(Cn1cncn1)c1ccc(Cl)cc1Cl", "values": [{"measurement": "GI50", "setting": "[2]", "result": "> 100 µM (inactive)"}, {"measurement": "GI50", "setting": "[3]", "result": "> 100 µM (inactive)"}, {"measurement": "GI50", "setting": "[4]", "result": "> 100 µM (inactive)"}, {"measurement": "GI50", "setting": "[5]", "result": "> 100 µM (inactive)"}, {"measurement": "GI50", "setting": "[16]", "result": "> 100 µM (inactive)"}, {"measurement": "GI50", "setting": "[6]", "result": "> 100 µM (inactive)"}, {"measurement": "GI50", "setting": "[7]", "result": "> 100 µM (inactive)"}, {"measurement": "GI50", "setting": "[8]", "result": "> 100 µM (inactive)"}, {"measurement": "GI50", "setting": "[17]", "result": "> 100 µM (inactive)"}, {"measurement": "GI50", "setting": "[9]", "result": "> 100 µM (inactive)"}, {"measurement": "GI50", "setting": "[10]", "result": "> 100 µM (inactive)"}, {"measurement": "GI50", "setting": "[18]", "result": "> 100 µM (inactive)"}, {"measurement": "GI50", "setting": "[11]", "result": "> 100 µM (inactive)"}, {"measurement": "GI50", "setting": "[12]", "result": "> 100 µM (inactive)"}, {"measurement": "GI50", "setting": "[14]", "result": "> 100 µM (inactive)"}, {"measurement": "GI50", "setting": "[15]", "result": "> 100 µM (inactive)"}]}
{"smiles": "CC1=C(Cl)C=CP(=O)(OC(C)C)C1", "note": "(stereo not drawn)", "values": [{"measurement": "GI50", "setting": "[2]", "result": "> 100 µM (inactive)"}, {"measurement": "GI50", "setting": "[3]", "result": "0.39 µM (active)"}, {"measurement": "GI50", "setting": "[4]", "result": "> 100 µM (inactive)"}, {"measurement": "GI50", "setting": "[5]", "result": "> 100 µM (inactive)"}, {"measurement": "GI50", "setting": "[16]", "result": "> 100 µM (inactive)"}, {"measurement": "GI50", "setting": "[6]", "result": "50.2 µM (inactive)"}, {"measurement": "GI50", "setting": "[7]", "result": "> 100 µM (inactive)"}, {"measurement": "GI50", "setting": "[8]", "result": "47.4 µM (inactive)"}, {"measurement": "GI50", "setting": "[17]", "result": "46.2 µM (inactive)"}, {"measurement": "GI50", "setting": "[9]", "result": "> 100 µM (inactive)"}, {"measurement": "GI50", "setting": "[10]", "result": "> 100 µM (inactive)"}, {"measurement": "GI50", "setting": "[18]", "result": "> 100 µM (inactive)"}, {"measurement": "GI50", "setting": "[12]", "result": "> 100 µM (inactive)"}, {"measurement": "GI50", "setting": "[14]", "result": "> 100 µM (inactive)"}, {"measurement": "GI50", "setting": "[15]", "result": "> 100 µM (inactive)"}]}
